Reference: ChEMBL document CHEMBL3870354, “Viral Replication Inhibitors May Treat the Dengue Virus Infections” (ACS Med Chem Lett, 2017)

Columns and labels:
[1] = Cytotoxicity against African green monkey Vero cells infected with eGPF-labeled DENV2 16681 assessed as reduction in cell viability measured after 3 days by ATPlite assay; assay type: toxicity, cell-based; settings: chlorocebus sabaeus; for CC50: vero, 72 h; for CC50 at 72 h: Vero cells infected with eGFP-labeled DENV2 16681
[2] = Selectivity index, ratio of CC50 for African green monkey Vero cells infected with eGPF-labeled DENV2 16681 to EC50 for DENV2 16681 expressing eGPF infected in African green monkey Vero cells
dengue virus type 2 = assay: Antiviral activity against eGPF-labeled DENV2 16681 infected in African green monkey Vero cells measured after 3 days by fluorescence microscopic analysis; assay type: functional, cell-based

SMILES	EC50 (dengue virus type 2) [nM]	CC50 [1] [nM]	Ratio CC50/EC50 [2]	CC50 at 72 h [1] [nM]
COc1cc(NC(C(=O)c2c[nH]c3ccc(OC(F)(F)F)cc23)c2ccc(Cl)cc2OC)cc(S(C)(=O)=O)c1 (single isomer, unassigned; enantiomer 2)	3.8	6200	1480	–
COc1cc(NC(C(=O)c2c[nH]c3cc(F)ccc23)c2ccc(Cl)cc2OC)cc(S(C)(=O)=O)c1 (racemic)	0.52	–	11500	5500
COc1cc(NC(C(=O)c2c[nH]c3c(C)cc(OC(F)(F)F)cc23)c2ccc(Cl)cc2OC)cc(S(C)(=O)=O)c1 (single isomer, unassigned; enantiomer 2)	4.1	9200	22200	–
COc1cc(NC(C(=O)c2c[nH]c3c(C)c(F)ccc23)c2ccc(Cl)cc2OC)cc(S(C)(=O)=O)c1 (single isomer, unassigned; enantiomer 2)	26	7400	285	–
COc1cc(NC(C(=O)c2c[nH]c3cc(F)ccc23)c2ccc(Cl)cc2OC)cc(S(C)(=O)=O)c1 (single isomer, unassigned; enantiomer 2)	12	6500	530	–
COc1cc(NC(C(=O)c2c[nH]c3cc(F)c(C)cc23)c2ccc(Cl)cc2OC)cc(S(C)(=O)=O)c1 (single isomer, unassigned; enantiomer 1)	13	6800	538	–
COc1cc(NC(C(=O)c2c[nH]c3cc(OC)c(C)cc23)c2ccc(Cl)cc2OC)cc(S(C)(=O)=O)c1 (single isomer, unassigned; enantiomer 2)	36	12000	341	–

These reach a lower EC50 (dengue virus type 2). Values come first.

EC50 (dengue virus type 2) [nM]	SMILES	CC50 [1] [nM]	Ratio CC50/EC50 [2]	CC50 at 72 h [1] [nM]
0.27	COc1cc(NC(C(=O)c2c[nH]c3cc(OC)c(C)cc23)c2ccc(Cl)cc2OC)cc(S(C)(=O)=O)c1 (single isomer, unassigned)	4200	16900	–
0.26	COc1cc(NC(C(=O)c2c[nH]c3c(C)c(F)ccc23)c2ccc(Cl)cc2OC)cc(S(C)(=O)=O)c1 (single isomer, unassigned; enantiomer 1)	–	22000	4800
0.26	COc1cc(NC(C(=O)c2c[nH]c3cc(F)ccc23)c2ccc(Cl)cc2OC)cc(S(C)(=O)=O)c1 (single isomer, unassigned; enantiomer 1)	4300	19700	–
0.2	COc1cc(NC(C(=O)c2c[nH]c3cc(F)c(C)cc23)c2ccc(Cl)cc2OC)cc(S(C)(=O)=O)c1 (single isomer, unassigned; enantiomer 2)	3200	18500	–
0.085	COc1cc(NC(C(=O)c2c[nH]c3c(C)cc(OC(F)(F)F)cc23)c2ccc(Cl)cc2OC)cc(S(C)(=O)=O)c1 (stereo in doubt; 11A)	2600	30100	–
0.067	COc1cc(NC(C(=O)c2c[nH]c3ccc(OC(F)(F)F)cc23)c2ccc(Cl)cc2OC)cc(S(C)(=O)=O)c1 (single isomer, unassigned; enantiomer 1)	2900	>37500	–
